Drawing on patent US11234920B2, “Manufacturing method of an ascorbic acid dispersion material” (priority 2015, dated 2022), this text covers Crystal shape for 1 compound.

The data set is described as follows: Observation of the crystals using a scanning electron microscope; measurement of the crystal thickness. In kind it is physicochemical. As to conditions: scanning electron microscope image. The procedure: The ascorbic acid crystals contained in the ascorbic acid dispersion material of the present invention obtained in Examples 1 to 3 were observed using a scanning electron microscope. 3. 5 mL of the ascorbic acid dispersion material of the present invention obtained in Examples 1 to 3 as an analyte and 0.5 g of commercially available ascorbic acid crystal powder were both infused into 20 mL of the dispersion medium prepared in 2, lightly shaken, and mixed. 6. The operations of 4 and 5 were further carried out to remove the solvent component of the ascorbic acid dispersion material of the present invention, following which the operation of 4 was further carried out to precipitate particles of the ascorbic acid, and remove the supernatant, and the particles were dried at a low temperature to obtain particulate powder. […]

In the case of `O=C1O[C@H]([C@@H](O)CO)C(O)=C1O` [ascorbic acid crystal powder, ascorbic acid], the Crystal shape entry is recorded as “indeterminate crystal shape”.
